From patent publication US5135917A, “Interleukin receptor expression inhibiting antisense oligonucleotides” (Nova Pharmaceutical Corporation, priority 1990, dated 1992)

What was measured:
Type in all cases: cell-based
human dermal fibroblasts [1] = assay: IL-1 stimulated prostaglandin E2 synthesis, human fibroblasts; details: Human cells; oligonucleotides 30 μm for 48 hours, then IL-1β 10 μ/ml for 6 hours; control 25
Method: (§1) 1. IL-1 stimulated prostaglandin E2 synthesis.
(§2) Effects of expression of IL-1 receptors by murine and human fibroblasts were assessed as follows Murine Swiss 3T3 cells (American Type Culture Collection ATCC CCL 92) or human dermal fibroblasts (primary culture) were grown in 96-well plates in Dulbecco's modified Eagles medium containing either 10% calf serum or 10% fetal bovine serum, respectively (Grand Island Biological Company), to confluency. The culture medium was replaced with identical medium except that the serum had been heat-inactivated at 65° C. for 15 minutes to inactivate nucleases. Oligonucleotides (30 μm) were added to the cultures and incubated for 48 hours. […] Oligonucleotides (phosphorothioates) S0-1, S0-2 and S0-3 are antisense to murine IL-1 receptor DNA and S0-6 is antisense to human IL-1 receptor DNA.

human dermal fibroblasts [2] = assay: Liposome delivery, IL-1 stimulated PGE2 in human dermal fibroblasts; details: liposomes; S0-6 30 μM; IL-1 10 U/ml for 4 hours; control (empty liposome) 65
Method: For the experiment human dermal fibroblasts were incubated for 18 hours with IL-1, 100 u/ml., to down-regulate existing receptors. The cells were then rinsed three times with phosphate-buffered saline containing 2 mM calcium and 0.1 mM magnesium to remove IL-1, then incubated 30 minutes. Liposomes were then added and the mixture was incubated for 30 minutes. Finally, polyethylene glycol (M.W.6000) was added for 1 minute, then the cultures were rinsed three times in culture medium. Cultures were incubated for eight hours, then stimulated with IL-1, 10 U/ml for 4 hours. Media were collected for radioimmunoassy of PGE2.

Murine Swiss 3T3 cells = assay: IL-1 stimulated prostaglandin E2 synthesis, murine fibroblasts; details: oligonucleotides 30 μm for 48 hours, then IL-1β 10 μ/ml for 6 hours, control 60
Method: as §1, §2

Substance: IL-1: cytokine interleukin 1, used as stimulus of prostaglandin E2 synthesis
- PGE2, pg/well (human dermal fibroblasts [1]): 285 pg/well
- PGE2, pg/well (human dermal fibroblasts [2]): 398 pg/well
- PGE2, pg/well (Murine Swiss 3T3 cells): 375 pg/well
